Experimental findings from the SangsterLogP compilation are described below.

The nature of one series: method code SF, from Hansch, C. & Leo, A. (1987). Log P database [Dataset]. Pomona College Medicinal Chemistry Project.
Conditions: not given
As to `Clc1ccc2[nH]c(CCCCCCc3nc4cc(Cl)ccc4[nH]3)nc2c1`, the logP – broadly, the decadic logarithm of the partition coefficient of the neutral form, usually between octanol and water – was 1.38.

`CC(=O)Nc1ccc2c(c1)S(=O)(=O)c1ccccc1C2=O` displayed a logP of 2.35.

`CCCCC1OC(=O)c2cc(N(CCO)CCO)ccc21` (configuration not stated): the logP came out at 1.34.

In turn, `O=C(O)CCCc1c[nH]c2ccccc12` registered a logP of 2.3.

For `Cc1cccc(Cl)c1`, the logP came out at 3.28.

The compound `CC1=NS(=O)(=O)c2ccc(C(F)(F)F)cc2N1` yielded a logP of 1.59.

`Cn1c(=O)c(=O)n(C)c2ccccc21` showed a logP of 0.08.

`CC(=O)Nc1cn[nH]c1` showed a log partition coefficient (logP) of -0.38.

On to `c1cn[nH]c1`, for which the logP turned out to be 0.13.

As to `Cn1nnnc1SCc1ccccc1`, the logP was determined as 1.63.

In turn, `c1ccc2[nH]nnc2c1` gave a logP of 1.33.

As for `CC(=O)OC[C@H]1O[C@@H](NC(=O)N(CCCl)N=O)[C@H](OC(C)=O)[C@@H](OC(C)=O)[C@H]1OC(C)=O`, the logP came out at 1.04.

Turning to `CC(C)(C)CC1=Nc2ccc(Cl)cc2S(=O)(=O)N1`, the logP came to 2.71.

For the compound `CNC(=O)Oc1ccccc1C1OCCO1`, the logP was found to be 0.67.

In the case of `Nc1c2ccccc2nc2ccccc12`, the logP worked out at 2.74.

For the compound `O=C(Nc1ccc(Br)cc1)C(F)(F)F`, the logP amounted to 3.34.

Compound `CC(=O)C(=Cc1ccccc1Cl)C(C)=O` yielded a logP of 2.19.

`CC(C)c1cccc(C(C)C)c1N` came in with a logP of 3.18.

The compound `O=C1C2(Cl)C3(Cl)C4(Cl)C(Cl)(Cl)C5(Cl)C3(Cl)C1(Cl)C5(Cl)C24Cl` (configuration not stated) came in with a logP of 5.41.

Compound `Cc1ccccc1/C=N/O` registered a logP of 2.53.

`c1ccc2c(c1)CCC2` returned a logP of 3.33.

The compound `COP(N)(=O)Oc1cc(Cl)c(Cl)cc1Cl` (configuration not stated) returned a logP of 2.53.

Consider `O=C(CCc1ccccc1)Nc1ccc(Cl)c(Cl)c1`, for which the log partition coefficient (logP) was determined as 4.85.

Compound `COc1ccc(-c2ncc[nH]2)c(OC)c1` displayed a logP of 1.72.

Turning to `CN(C)C(=O)Oc1ccccc1Br`, the lipophilicity (logP) was 2.17.

Take `O=C(C=Cc1ccco1)c1ccco1`: the logP came to 2.34.

`COc1ccc(OC(C)=O)cc1` came in with a logP of 1.54.

`c1cocn1` came in with a logP of 0.12.

The compound `CCOCCOC(=O)C(C#N)=C(CC)Nc1ccc(N)cc1` displayed a logP of 2.27.

In the case of `NC(=O)c1ccc(N)cc1`, the logP was -0.41.

In the case of `Cc1ccc(C(O)c2ccccc2)cc1` (configuration not stated), the logP was determined as 3.13.

The compound `CSC(=O)Nc1ccc(Cl)c(Cl)c1` came in with a logP of 4.23.

`NC(=S)c1ccccc1N` gave a logP of 0.99.

The compound `OCCCCCl` yielded a logP of 0.85.

For `CCCCC1OC(=O)c2cc(Br)ccc21` (configuration not stated), the lipophilicity (logP) is 4.24.

In turn, `CN(C)c1cccc(C(N)=O)c1` returned a log partition coefficient (logP) of 0.95.

The compound `N#CN=[N+]([O-])c1cccc(C(F)(F)F)c1` came in with a logP of 2.52.

`COc1cccc(C(=O)N(C)C)c1` came in with a log partition coefficient (logP) of 1.

The compound `CSCCC(=O)N(C)c1ccc(S(=O)(=O)N(C)C)cc1` came in with a lipophilicity (logP) of 0.99.

The compound `CC(=O)Nc1cccc(N(C)C)c1` yielded a log partition coefficient (logP) of 1.29.

In the case of `CCOP(=S)(OCC)SCSCC`, the logP came out at 3.24.

For `O=[N+]([O-])c1ccc2[nH]c(CCCCCc3nc4cc([N+](=O)[O-])ccc4[nH]3)nc2c1`, the logP worked out at 1.97.

In turn, `CCOCCCl` showed a log partition coefficient (logP) of 0.98.

On to `C1OCOCO1`, for which the logP is -0.43.

In the case of `Cn1cnc2ccccc2c1=O`, the logP turned out to be 0.69.

Regarding `OCc1cccc(C(F)(F)F)c1`, the logP is 2.24.

With `COc1ccc(OC(=O)CNC(=O)c2ccccc2)cc1`, the log partition coefficient (logP) is 2.28.

With `CCNP(=O)(OC)Oc1cc(Cl)c(Cl)cc1Cl` (configuration not stated), the logP amounted to 3.18.

In turn, `CCOC(=O)CC(=O)C=Cc1ccccc1C` displayed a logP of 2.66.

With `O=C(NC(CO)C(O)c1ccc(NC(=O)C2CC2)cc1)C(Cl)Cl` (configuration not stated), the logP came to 0.75.

Compound `CC1=Nc2ccc(F)cc2S(=O)(=O)N1` came in with a logP of 0.62.

Regarding `NS(=O)(=O)c1cccc(OC(=O)CNC(=O)c2ccccc2)c1`, the logP was 0.84.

As for `CC1(C)OC2CC3C4CC(F)C5=CC(=O)C(Cl)=CC5(C)C4(F)C(O)CC3(C)C2(C(=O)CO)O1` (configuration not stated), the lipophilicity (logP) stood at 2.99.

`NN=C(c1ccccc1)c1ccccc1` returned a logP of 2.79.

`NC1=NC(C(F)(F)F)(C(F)(F)F)NC1(C(F)(F)F)C(F)(F)F`: the logP is 3.35.

The compound `NC(=O)CCl` registered a logP of -0.53.

The compound `O=S1(=O)NC(C(F)(F)F)=Nc2cc(Cl)ccc21` had a logP of 1.65.

In turn, `O=C(Nc1ccc(Cl)c(Cl)c1)c1ccccc1` returned a logP of 4.42.

`CCc1ccc(NC(C)=O)cc1` displayed a logP of 2.11.

`CC(=O)Oc1ccccc1I` showed a logP of 2.55.

Consider `CCCOc1cn[nH]c1`, for which the lipophilicity (logP) worked out at 1.42.

`Nc1cccc(Cl)c1` returned a logP of 1.9.

In turn, `CN(C)C(=O)Cc1cccs1` showed a logP of 0.65.

Regarding `CC(C)(C)C`, the logP came to 3.11.

Regarding `O=C(CNC(=O)c1ccccc1)Oc1cccc([N+](=O)[O-])c1`, the logP was found to be 2.46.

`CNC(=O)Oc1cc(C)c(Cl)cc1C` gave a logP of 2.95.

On to `COc1cc(S(C)=O)ccc1-c1cn2ccncc2n1` (configuration not stated), for which the logP came to 1.11.

In turn, `O=CC(CO)OC(C=O)n1cnc2c(O)ncnc21` (configuration not stated) registered a logP of -2.11.

Turning to `CC(=O)CF`, the logP was -0.39.

Take `Nc1cccc2cc3ccccc3nc12`: the logP came out at 3.26.

Turning to `O=C1C[C@@H]2OCC=C3CN4CC[C@]56c7ccccc7N1[C@H]5[C@H]2[C@H]3C[C@H]46`, the logP came to 1.93.

`COc1ccccc1C=CC(=O)ON=Cc1ccc(OCCO)c(OC)c1` displayed a logP of 3.56.

`COc1ccccc1C` registered a logP of 2.74.

The compound `CCOc1ccccc1` came in with a logP of 2.51.

`O=C(OC(=O)c1ccccc1)c1ccccc1` registered a logP of 2.26.

Regarding `CCC1(c2ccccc2)C(=O)NCNC1=O`, the lipophilicity (logP) is 0.91.

As for `CNC(=O)NCCSCc1nc[nH]c1C`, the logP is -0.06.

`CC(=O)c1ccc2ncccc2c1` showed a log partition coefficient (logP) of 1.58.

The compound `O=[N+]([O-])/C=C/c1ccc(Cl)cc1Cl` came in with a logP of 3.26.

The compound `O=c1cc[nH]cn1` gave a logP of -1.38.

As for `CCCCNC(N)=O`, the log partition coefficient (logP) came out at 0.41.

With `OC12CC3CC(CC(C3)C1)C2`, the logP worked out at 2.14.

`COc1ccccc1OC` yielded a logP of 1.79.

The compound `Nc1ccccc1O` gave a logP of 0.57.

With `Cc1ccc2[nH]c(CCc3nc4cc(C)ccc4[nH]3)nc2c1`, the logP amounted to 1.39.

Take `CCCCCC(=O)Nc1ccccc1`: the logP turned out to be 3.28.

For `CC(C)(C)N`, the logP is 0.4.

The compound `c1ccc2c(c1)OCCO2` registered a lipophilicity (logP) of 2.01.

The compound `CCCCSc1ccccc1OC(=O)NC` returned a logP of 2.98.

Consider `Cc1nn(-c2ccccc2)c(C)c1N=O`, for which the logP is 2.28.

`CCOC(=O)C(=Cc1ccc(OC)cc1)C(C)=O` returned a logP of 2.46.

Take `CN(C)/N=N/c1cccc(C(F)(F)F)c1`: the logP turned out to be 3.78.

`Cn1ccc(=O)[nH]c1=O` returned a logP of -1.2.

`O=C(Nc1ccc(Cl)c(Cl)c1)C(F)F` returned a log partition coefficient (logP) of 3.18.

`CNc1cccc2ccccc12` gave a logP of 2.88.

In the case of `Nc1nc(O)c2nc[nH]c2n1`, the log partition coefficient (logP) is -0.91.

As for `CC(=O)CCN(C)c1ccc(S(=O)(=O)N(C)C)cc1`, the logP turned out to be 0.23.

Take `C#CC(C)(C)O`: the log partition coefficient (logP) was 0.28.

In turn, `C=C1C[C@]23C[C@@]1(O)CC[C@H]2[C@@]12C=C[C@H](O)[C@@](C)(C(=O)O1)[C@H]2[C@@H]3C(=O)O` displayed a logP of 0.24.

`CP(C)c1ccccc1` yielded a logP of 2.57.

The compound `CC(=O)OCCOC(=O)c1ccccc1` came in with a logP of 1.85.

As to `Nc1cccc2nc3ccccc3cc12`, the logP was 2.47.

In turn, `C[C@@H]1C[C@H]2[C@@H]3C[C@H](F)C4=CC(=O)C(Cl)=C[C@]4(C)[C@@]3(Cl)[C@@H](O)C[C@]2(C)[C@@]1(O)C(=O)COC(=O)C(C)(C)C` returned a logP of 4.73.

Compound `COc1cc(C=O)ccc1OCCOC(=O)c1cccc(Cl)c1` came in with a logP of 3.67.

In the case of `CC(=O)Nc1ccc(C(C)(C)C)cc1`, the lipophilicity (logP) was 3.05.

`Nc1ncnc2c1ncn2[C@@H]1O[C@H](CO)[C@@H](O)[C@@H]1O` returned a logP of -1.11.

`O=c1[nH]c2ccccc2[nH]c1=O` gave a logP of 0.2.

In the case of `C=COCC`, the logP came out at 1.04.

The same series, now with this note: pH 1.4.
In the case of `Oc1c(Br)cc(Br)c(O)c1Br`, the log distribution coefficient (logD) (in general, the decadic logarithm of the distribution of all forms, ionised or not, between an organic phase and buffer at a given pH) was 4.37.

Regarding `Oc1cc(O)cc(O)c1`, the logD was 0.16.

The same series, now with this note: pH 2.0.
With `CCC1(CC2COc3ccccc3O2)C(=O)NC(=O)NC1=O` (configuration not stated), the logD stood at 1.85.

The same series, now with this note: pH 7.0.
On to `O=[N+]([O-])c1cccc(C(F)(F)F)c1`, for which the pH-dependent lipophilicity (logD) amounted to 2.62.

`O=CNc1cccc([N+](=O)[O-])c1`: the logD is 1.4.

Staying with this series, now noted: pH 7.4.
As to `Cc1c(N2CCOCC2)c(=O)n(-c2ccccc2)c(=O)n1C`, the logD was found to be 0.69.

Compound `C#CCN(C)/N=N/c1nc[nH]c1C(N)=O` had a pH-dependent lipophilicity (logD) of 0.33.

`CN(C)/N=N/c1ccccc1` came in with a logD of 2.59.

Consider `CO/N=C/CCc1ccccc1`, for which the logD came out at 2.14.

`Cc1c(N2CCCCC2)c(=O)n(-c2ccccc2)c(=O)n1C` returned a logD of 2.76.

Regarding `CC(=O)Nc1ccccc1C(C)C`, the logD was 1.71.

`CSc1ccc2c(c1)C(c1ccccc1)=NCC(=O)N2` registered a logD of 2.92.

Still in this series, the particulars now being: pH 7.5.
Compound `O=C[C@H](O)[C@@H](O)[C@H](O)[C@H](O)CO` had a logD of -1.88.

Still in this series, the particulars now being: pH 8.0.
Turning to `COc1ccc(-c2nc3ccccc3[nH]2)c(OC)c1`, the pH-dependent lipophilicity (logD) is 2.59.

Still in this series, the particulars now being: pH 9.2.
Take `CC(C)C#CN(C)C(C)C`: the log distribution coefficient (logD) came out at 2.29.

The series is the same for the next values; noted with them: pH 11.0.
`CN(C)Cc1cccnc1` registered a logD of 0.49.

`c1cncc([C@@H]2CCCN2)c1`: the logD stood at 0.17.

Staying with this series, now noted: pH 13.0.
`NCc1ccc([N+](=O)[O-])cc1` gave a logD of 1.06.

`CC1(C)N=C(N)N=C(N)N1c1ccccc1` yielded a logD of 0.28.

In turn, `Nc1nc(N)c2ccccc2n1` came in with a logD of 1.

As for `Nc1cn[nH]c1`, the logD is -1.09.

For the compound `NNc1ccc(Br)cc1`, the pH-dependent lipophilicity (logD) amounted to 1.39.

The compound `CNCc1ccccc1` displayed a logD of 1.52.

Take `CCN(CC)CC(O)c1ccccc1` (configuration not stated): the logD amounted to 2.02.
